Assay results published in publication PMC6443726, “The unfolded protein response modulators GSK2606414 and KIRA6 are potent KIT inhibitors” (Cell Death & Disease, 2019).

Target: T1, KIT (Homo sapiens, UniProt P10721)
T1 construct: recombinant cytoplasmic portion of KIT, wild type (ProQinase #0997-0000-1)
Test: MicroScale Thermophoresis (MST)
Assay type: binding

T1 sequence (P10721 544-976 limits assumed): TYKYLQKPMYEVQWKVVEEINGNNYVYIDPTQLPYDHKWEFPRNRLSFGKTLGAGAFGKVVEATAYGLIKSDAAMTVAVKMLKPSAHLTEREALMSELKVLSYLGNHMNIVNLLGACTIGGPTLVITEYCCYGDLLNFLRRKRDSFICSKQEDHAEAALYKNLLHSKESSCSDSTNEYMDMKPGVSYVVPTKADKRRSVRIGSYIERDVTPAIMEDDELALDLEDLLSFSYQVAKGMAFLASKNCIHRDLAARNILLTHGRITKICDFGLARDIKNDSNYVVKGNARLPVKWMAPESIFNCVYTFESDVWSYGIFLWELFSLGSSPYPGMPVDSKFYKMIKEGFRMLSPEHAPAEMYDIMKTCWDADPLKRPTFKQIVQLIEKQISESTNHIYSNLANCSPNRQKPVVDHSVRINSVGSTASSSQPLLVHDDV

Structure (SMILES)	Kd [µM]
CC(C)(C)c1nc(-c2ccc(NC(=O)Nc3cccc(C(F)(F)F)c3)c3ccccc23)c2c(N)nccn12 [KIRA6]	10.8 ± 2.9
Cn1cc(-c2ccc3c(c2)CCN3C(=O)Cc2cccc(C(F)(F)F)c2)c2c(N)ncnc21 [GSK414, 7-methyl-5-(1-{[3-(trifluoromethyl)phenyl]acetyl}-2,3-dihydro-1H-indol-5-yl)-7H-p yrrolo[2,3-d]pyrimidin-4-amine]	0.664 ± 0.294
